Drawing on BindingDB's records for doi:10.1016/j.bmcl.2011.04.103 (University of Strasburg, 2011), this text covers IC50 for three compounds.

By IC50 is commonly meant the concentration needed to halve the response being measured.

The nature of the experiment: Inhibition of N-terminal SHH activated pathway in mouse C3H10T1/2 cells assessed as SAG-induced cell differentiation by alkaline phosphatase assay.

As to `CC1=C2C[C@H]3[C@@H](CC=C4C[C@@H](O)CC[C@@]43C)[C@@H]2CC[C@]12O[C@@H]1C[C@H](C)CN[C@H]1[C@H]2C`, the IC50 came out at 600 nM.
On to `C[C@H]([C@@H]1CCCCN1)[C@H]1CC[C@H]2[C@@H]3CC=C4C[C@@H](O)CC[C@]4(C)[C@H]3CC[C@]12C`, for which the IC50 was 3200 nM.
To `COc1cccc(CN(C(=O)CC(C)(C)C)[C@H]2C[C@@H](C(=O)N3CCNCC3)N(Cc3ccc4c(c3)OCO4)C2)c1` [N-((3S,5S)-1-(benzo[d][1,3]dioxol-5-ylmethyl)-5-(piperazine-1-carbonyl)pyrrolidin-3-yl)-N-(3-methoxybenzyl)-3,3-dimethylbutanamide] belongs 300 nM.
